Our source for the TGI and GI50 values is PubChem BioAssay (NCI).

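48-hour exposure; five concentrations; linearly interpolated endpoints. GI50 marks 50% less growth. TGI marks complete inhibition of growth.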

Test systems include RPMI-8226 leukemia; HS 578T breast; T-47D breast; SR leukemia; MALME-3M melanoma; OVCAR-4 ovarian; SNB-19 CNS; SF-268 CNS; HCT-15 colon; MDA-MB-231 breast.
Experiment in all cases: growth of human tumour cells (NCI), 48 h

With `O=C/C=C/c1ccco1`, the TGI in the experiment with RPMI-8226 leukemia, in the experiment on HS 578T breast, in the experiment on T-47D breast, in the experiment on SR leukemia, with MALME-3M melanoma and in the experiment with OVCAR-4 ovarian was greater than 100 µM each time. Moreover, the TGI in the experiment on SNB-19 CNS, with SF-268 CNS, in the experiment on HCT-15 colon and with MDA-MB-231 breast was greater than 100 µM in each case.

Consider `COc1cc(C2C(C(=O)O)=C(COC(C)=O)Oc3cc4c(cc32)OCO4)cc(OC)c1OC` (stereo not given), for which the TGI in the experiment with RPMI-8226 leukemia, with MALME-3M melanoma, with OVCAR-4 ovarian, in the experiment with SNB-19 CNS and in the experiment on HCT-15 colon was greater than 100 µM each time.

Consider `O=C1/C(=C/c2ccc(Cl)cc2)N=C(c2ccccc2)N1CCc1cccs1`, for which the GI50 was 14500 nM with RPMI-8226 leukemia; 20.3 µM in the experiment on HS 578T breast; 18.2 µM in the experiment on T-47D breast; 24.2 µM in the experiment with SR leukemia; 35100 nM in the experiment on MALME-3M melanoma; 7.72 µM with OVCAR-4 ovarian. Also, the GI50 in the experiment on SNB-19 CNS was 29.4 µM; in the experiment with SF-268 CNS, 31.7 µM; in the experiment on HCT-15 colon it was 19.3 µM; with MDA-MB-231 breast, 13.6 µM. For the same molecule, the TGI in the experiment with RPMI-8226 leukemia was 83.4 µM; in the experiment with HS 578T breast it was greater than 100 µM; in the experiment on T-47D breast, greater than 100 µM; in the experiment with SR leukemia, greater than 100 µM; in the experiment with MALME-3M melanoma, greater than 100 µM; in the experiment on OVCAR-4 ovarian it was greater than 100 µM. Moreover, the TGI with SNB-19 CNS was greater than 100 µM; in the experiment with SF-268 CNS it was greater than 100 µM; in the experiment on HCT-15 colon, greater than 100 µM; with MDA-MB-231 breast it was 98.7 µM.

Take `N=C(N)SCc1ccc(Cl)cc1Cl` (tested in a mixture with another compound): the TGI in the experiment on RPMI-8226 leukemia was determined as 12.7 µM; in the experiment with HS 578T breast it was 45.2 µM; in the experiment with T-47D breast, 39 µM; with SR leukemia, 22.8 µM; with MALME-3M melanoma it was 34.2 µM; in the experiment on OVCAR-4 ovarian it was 38.8 µM. Besides, the TGI with SNB-19 CNS amounted to 47.6 µM; in the experiment with SF-268 CNS, 40 µM; in the experiment on HCT-15 colon, 35.1 µM; in the experiment with MDA-MB-231 breast, 25 µM.

In the case of `CNC(=O)N(C)COC`, the TGI with RPMI-8226 leukemia, with SR leukemia, in the experiment on MALME-3M melanoma, in the experiment on OVCAR-4 ovarian, in the experiment on SNB-19 CNS and with SF-268 CNS was greater than 100 µM throughout. For the same molecule, the TGI in the experiment with HCT-15 colon is greater than 100 µM.

`O=C(O)c1cn2c3c(cc(N4CCN(CCO)CC4)cc3c1=O)SCC2`: the TGI in the experiment with RPMI-8226 leukemia, in the experiment with MALME-3M melanoma, with OVCAR-4 ovarian, in the experiment on SNB-19 CNS, in the experiment with SF-268 CNS and in the experiment with HCT-15 colon was greater than 100 µM each time.

Take `COc1cc(/C=C/C(=O)c2c(C)nc3ccccc3c2C)ccc1OCCCOc1cc2c(cc1OC)C(=O)N1CCC[C@H]1C=N2`: the GI50 with RPMI-8226 leukemia was 14 nM; in the experiment on HS 578T breast, 0.0209 µM; with T-47D breast it was 0.041 µM; with SR leukemia, 0.0321 µM; in the experiment with OVCAR-4 ovarian, 0.0443 µM; with SNB-19 CNS, 0.187 µM. Further, the results for the GI50 in the experiment on HCT-15 colon and in the experiment with MDA-MB-231 breast were 0.278 µM and 0.0306 µM, respectively. Besides, the TGI was determined as 0.0477 µM in the experiment with RPMI-8226 leukemia; 0.0577 µM with HS 578T breast; 31.5 µM in the experiment with OVCAR-4 ovarian; 1.01 µM in the experiment on HCT-15 colon; 0.0985 µM in the experiment with MDA-MB-231 breast.

`CN(C)c1ccc(C(Cc2ccc3ccccc3n2)Cc2ccc3ccccc3n2)cc1`: the GI50 with HS 578T breast is 6.22 µM; with T-47D breast, 1.71 µM; with MALME-3M melanoma, 1960 nM; with MDA-MB-231 breast it was 5.41 µM. Further, the TGI in the experiment with HS 578T breast, in the experiment with T-47D breast, in the experiment on MALME-3M melanoma and with MDA-MB-231 breast was greater than 100 µM throughout.

As to `CCCCCCCCCCCCCC[n+]1ccc2c(C)c3c(c(C)c2c1)c1cc(O)ccc1n3CC`, the GI50 is 310 nM with RPMI-8226 leukemia; 0.975 µM in the experiment with HS 578T breast; 233 nM with MALME-3M melanoma; 0.272 µM in the experiment on OVCAR-4 ovarian; 1.21 µM with HCT-15 colon; 0.602 µM with MDA-MB-231 breast. In addition, the TGI with RPMI-8226 leukemia was 1.99 µM; in the experiment on HS 578T breast, 3.67 µM; with MALME-3M melanoma, 0.706 µM; in the experiment on OVCAR-4 ovarian, 1.07 µM; with HCT-15 colon, 3.5 µM; in the experiment on MDA-MB-231 breast, 2.1 µM.

Consider `CO/N=C(\C)COc1ccc2c(=O)c(-c3ccccc3)coc2c1`, for which the GI50 in the experiment with RPMI-8226 leukemia is greater than 100000 nM; in the experiment on HS 578T breast it was 63.1 µM; in the experiment on T-47D breast it was 17.3 µM; in the experiment with OVCAR-4 ovarian, 40.4 µM; in the experiment on SNB-19 CNS, 17.7 µM; in the experiment on SF-268 CNS, 24.5 µM. Also, the figures for the GI50 in the experiment on HCT-15 colon and with MDA-MB-231 breast were 40.1 µM and 20.5 µM, respectively. Moreover, the TGI is greater than 100 µM in the experiment with RPMI-8226 leukemia; greater than 100 µM in the experiment with HS 578T breast; 48.6 µM in the experiment with T-47D breast; greater than 100 µM with OVCAR-4 ovarian; greater than 100 µM in the experiment with SNB-19 CNS; 71 µM with SF-268 CNS. Also, the TGI is greater than 100 µM in the experiment on HCT-15 colon and 40.9 µM with MDA-MB-231 breast.

Take `CC(C)C1=CCC2C(=C1)CCC1C(C)(C(=O)O)CCCC21C` (stereo not given) (tested in a mixture with another compound): the TGI with RPMI-8226 leukemia was 70.2 µM; with HS 578T breast, greater than 100 µM; with T-47D breast it was greater than 100 µM; with SR leukemia, greater than 100 µM; with MALME-3M melanoma it was greater than 100 µM; in the experiment with OVCAR-4 ovarian it was greater than 100 µM. For the same molecule, the TGI with SF-268 CNS, in the experiment with HCT-15 colon and in the experiment with MDA-MB-231 breast was greater than 100 µM throughout.

`CCc1ccc2nc(-c3ccc(O)cc3)sc2c1`: the TGI is 35.3 µM in the experiment on RPMI-8226 leukemia; 36.8 µM with MALME-3M melanoma; 35.5 µM with SNB-19 CNS; 37.8 µM with SF-268 CNS; 29.4 µM with HCT-15 colon; 29.9 µM with MDA-MB-231 breast.

On to `N#Cc1c(N)sc2c1-c1ccccc1OC2`, for which the TGI with RPMI-8226 leukemia is greater than 100 µM; in the experiment on SR leukemia, 47.9 µM; with MALME-3M melanoma, greater than 100 µM; in the experiment with OVCAR-4 ovarian, 88 µM; in the experiment on SNB-19 CNS, greater than 100 µM; in the experiment with SF-268 CNS, greater than 100 µM. Also, the TGI in the experiment with HCT-15 colon and in the experiment on MDA-MB-231 breast was greater than 100 µM each time.
